For series [1], the target named is T1, cloned human α2A receptors (Homo sapiens, UniProt P08913).
T1 construct: expressed in transfected cells; host or cells: Chinese Hamster Ovary (CHO) cells
T1 sequence (P08913 1-465): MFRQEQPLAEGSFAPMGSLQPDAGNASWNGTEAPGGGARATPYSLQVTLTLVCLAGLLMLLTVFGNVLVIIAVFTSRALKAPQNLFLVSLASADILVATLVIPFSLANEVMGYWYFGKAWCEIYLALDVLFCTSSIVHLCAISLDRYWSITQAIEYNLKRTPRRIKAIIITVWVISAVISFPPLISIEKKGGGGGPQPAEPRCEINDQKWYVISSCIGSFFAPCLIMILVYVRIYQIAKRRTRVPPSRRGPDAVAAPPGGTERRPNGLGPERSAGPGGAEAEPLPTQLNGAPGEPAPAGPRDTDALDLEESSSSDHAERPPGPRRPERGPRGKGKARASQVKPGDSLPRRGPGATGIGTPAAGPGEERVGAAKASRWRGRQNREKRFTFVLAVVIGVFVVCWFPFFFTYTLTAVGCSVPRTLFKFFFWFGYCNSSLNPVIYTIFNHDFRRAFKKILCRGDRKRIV
Put plainly: In vitro radioligand binding affinity for α2A receptor (3H-rauwolscine competition). As to conditions: read-out: dissociation: IC50 value for the α2a receptor. Here is the method:
The interaction of the compounds of formula (I) with α2 receptors was assessed in in vitro radioligand binding experiments.
In general, a low concentration of a radioligand with a high binding affinity for a particular receptor is incubated with a sample of a tissue preparation enriched in a particular receptor or with a preparation of cells expressing cloned human receptors in a buffered medium. During the incubation, the radioligand binds to the receptor. When equilibrium of binding is reached, the receptor bound radioactivity is separated from the non-bound radioactivity, and the receptor bound activity is counted. The interaction of the test compounds with the receptor is assessed in competition binding experiments. Various concentrations of the test compound are added to the incubation mixture containing the receptor preparation and the radioligand. Binding of the radioligand will be inhibited by the test compound in proportion to its binding affinity and its concentration.
The radioligand used for α2A, α2B and α2C receptor binding is ^3H-rauwolscine and the receptor preparation used is the Chinese Hamster Ovary (CHO) cell expressing cloned human α2A, α2B and α2C receptors.

The target of series [2] is dopamine D2 receptor (Homo sapiens, UniProt P14416). The series can be described thus: Receptor binding affinity for dopamine D2 (dissociation α2a / D2). As to conditions: for Ratio D2/α2a (dissociation between the two receptors): ratio of IC50 D2 to IC50 α2a; for IC50: receptor binding affinity, dopamine D2. The source says: As already mentioned above, dopamine D2 antagonism may lead to an increased risk of EPS. Thus, the larger the dissociation between α2a and D2, the better. The columns headed “dissociation” show the IC50 value in molar (M) for the α2a receptor and the D2 receptor. By “Ratio” is meant the ratio D2/αa and this is an indication for the dissociation between said two receptors.

One may read the IC50 as the concentration at which inhibition is half-maximal. As a reminder, the melting point is the temperature of the solid-liquid transition.

Sequence of dopamine D2 receptor (P14416 whole entry, species assumed): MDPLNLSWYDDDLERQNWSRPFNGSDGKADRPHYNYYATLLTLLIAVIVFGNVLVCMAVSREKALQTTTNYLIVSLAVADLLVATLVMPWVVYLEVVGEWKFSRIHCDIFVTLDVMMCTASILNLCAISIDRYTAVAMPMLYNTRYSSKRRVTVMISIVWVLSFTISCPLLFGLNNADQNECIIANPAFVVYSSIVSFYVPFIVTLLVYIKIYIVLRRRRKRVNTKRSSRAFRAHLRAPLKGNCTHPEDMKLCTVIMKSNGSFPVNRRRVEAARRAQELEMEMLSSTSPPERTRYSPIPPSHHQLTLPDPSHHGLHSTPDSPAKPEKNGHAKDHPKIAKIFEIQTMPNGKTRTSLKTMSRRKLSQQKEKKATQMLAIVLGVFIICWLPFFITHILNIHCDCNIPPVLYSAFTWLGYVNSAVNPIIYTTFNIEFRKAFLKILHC

Molecule `O=C(CCCCCN1CCc2[nH]c3ccccc3c2C1)c1ccc(F)cc1` [Comp. 1] yielded a melting point of 190 °C. Moreover, the IC50 in series [1] came to 5 nM. In series [2], the “Ratio D2/α2a (dissociation between the two receptors)” value (“Ratio D2/α2a” below) was 79 and the IC50 turned out to be 400 nM.

Regarding `O=C(CCCCCN1CCc2oc3ccccc3c2C1)c1ccc(F)cc1` [Comp. 2, 1-(4-fluorophenyl)-6-(1,2,3,4-tetrahydrobenzofuro[3,2-c]pyridin-2-yl)-1-hexanone (E)-2-butenedioate (1:1)], the IC50 in series [1] turned out to be 0.26 nM; in series [2] it was 500 nM. The “Ratio D2/α2a” value in series [2] was found to be 1950.

As for `O=C(CCCN1CCc2[nH]c3ccccc3c2C1)c1ccc(F)cc1` [reference compound], the IC50 in series [1] turned out to be 41 nM. In addition, in series [2], the “Ratio D2/α2a” value is listed as 2.5 and the IC50 is 100 nM.

Turning to `O=C(CCCN1CCc2oc3ccccc3c2C1)c1ccc(F)cc1` [reference compound], the IC50 stood at 2.1 nM in series [1] and 210 nM in series [2]. Further, the “Ratio D2/α2a” value in series [2] was determined as 102.

For the origin of these results see patent US6576640B1, “Benzisoxazoles and phenones as α2-antagonists” (Janssen Pharmaceutica N.V., priority 1998, dated 2003).
